Data as given in patent US6726911B1, “Biologically active compounds of Ganoderma pfeifferi DSM 13239” (Ganomycin, priority 1999, dated 2004).
Like-named read-outs stand apart in the source and are kept apart here.

Assays:
[1] = tested on: peritoneal mast cells of rats; conditions: 2 mg/ml; Hager, reference 31; cited from earlier work
[2] = tested on: Aeromonas salmonicida subsp. salmonicida 67 A 1; assay: agar diffusion test on fish-pathogenic bacteria; format: cell-based
[3] = tested on: Aeromonas hydrophila DSM 30019; assay: agar diffusion test on fish-pathogenic bacteria; format: cell-based
[4] = tested on: Vibrio anguillarum ATCC 1188; assay: agar diffusion test on fish-pathogenic bacteria; format: cell-based
CD-14 receptor = target: T1, CD-14 receptor (Homo sapiens, UniProt P08571); assay: serum-mediated binding of FITC-labeled lipopolysaccharide to CD-14 transfected Chinese hamster ovary cell lines; format: cell-based; conditions: CD14+ cells
T1 construct: expressed in transfected cells; host or cells: Chinese hamster ovary cell lines
T1 sequence (P08571 20-345): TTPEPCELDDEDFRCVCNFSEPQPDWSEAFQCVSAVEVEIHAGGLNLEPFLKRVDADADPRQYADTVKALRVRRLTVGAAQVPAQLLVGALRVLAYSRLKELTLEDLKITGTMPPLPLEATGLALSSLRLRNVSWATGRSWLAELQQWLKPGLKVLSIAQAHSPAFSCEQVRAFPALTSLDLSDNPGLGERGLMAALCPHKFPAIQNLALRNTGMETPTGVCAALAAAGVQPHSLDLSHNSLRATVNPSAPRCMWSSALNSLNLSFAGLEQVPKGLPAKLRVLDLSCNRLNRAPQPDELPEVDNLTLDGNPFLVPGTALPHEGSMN
Method: Methods: The test was performed according to Grunwald (CD-14 als Rezeptor für Endotoxin: in vitro-Untersuchungen zu Bindungsmodalitaten von LPS und zur Beeinflussung der Expression. Dissertation Ernst-Moritz-Arndt-Universität Greifswald 1993). For the tests, cell lines from ovaries of Chinese hamsters were used which express the CD-14 receptor after transfection of the CD-14 gene. The lipopolysaccharide was labeled with FITC so that the binding to the receptor could be determined by measuring the fluorescence intensity.

[5] = tested on: oxygen free-radical release; assay: free-radical scavenging by luminol chemiluminescence in zymosan-stimulated human blood; format: cell-based; conditions: 10 μg/ml
Method: The proof was established as follows:
A: […] was preincubated with […] of PBS+luminol (0.33 mM final) at 37° C. for 20 min.
B: 30 μl of human blood was preincubated with […] of PBS+luminol (0.33 mM final) and […] of substance dilution at 37° C. for 20 min.
To A was pipetted 20 μl of a 1:100 dilution of the extract of Example 11 and 20 μl of zymosan (10 mg/ml).
To B was pipetted 20 μl of zymosan (10 mg/ml).
As a control, PBS was used instead of zymosan as a stimulator with and without substance in charges A and B. After intensive mixing, the kinetics of the luminescence were measured over 60 min. The examinations were performed on two different days with blood from two different blood donors.
Methods: The free-radical scavenging function of the active substances of formula 1, ganomycin A and ganomycin B, broadens the possibilities of medicinal use. The proof was established as in the examination of the extracts according to Example 48.

[6] = tested on: human hepatoma cells (PLC/PRF/5 cells); conditions: Hager, reference 66; cited from earlier work
KB cells = conditions: Hager, reference 66; cited from earlier work
[7] = target: angiotensin-converting enzyme (Homo sapiens, UniProt P12821); conditions: in vitro; Hager, reference 39; cited from earlier work
angiotensin-converting enzyme, sequence (P12821 30-1306, species assumed): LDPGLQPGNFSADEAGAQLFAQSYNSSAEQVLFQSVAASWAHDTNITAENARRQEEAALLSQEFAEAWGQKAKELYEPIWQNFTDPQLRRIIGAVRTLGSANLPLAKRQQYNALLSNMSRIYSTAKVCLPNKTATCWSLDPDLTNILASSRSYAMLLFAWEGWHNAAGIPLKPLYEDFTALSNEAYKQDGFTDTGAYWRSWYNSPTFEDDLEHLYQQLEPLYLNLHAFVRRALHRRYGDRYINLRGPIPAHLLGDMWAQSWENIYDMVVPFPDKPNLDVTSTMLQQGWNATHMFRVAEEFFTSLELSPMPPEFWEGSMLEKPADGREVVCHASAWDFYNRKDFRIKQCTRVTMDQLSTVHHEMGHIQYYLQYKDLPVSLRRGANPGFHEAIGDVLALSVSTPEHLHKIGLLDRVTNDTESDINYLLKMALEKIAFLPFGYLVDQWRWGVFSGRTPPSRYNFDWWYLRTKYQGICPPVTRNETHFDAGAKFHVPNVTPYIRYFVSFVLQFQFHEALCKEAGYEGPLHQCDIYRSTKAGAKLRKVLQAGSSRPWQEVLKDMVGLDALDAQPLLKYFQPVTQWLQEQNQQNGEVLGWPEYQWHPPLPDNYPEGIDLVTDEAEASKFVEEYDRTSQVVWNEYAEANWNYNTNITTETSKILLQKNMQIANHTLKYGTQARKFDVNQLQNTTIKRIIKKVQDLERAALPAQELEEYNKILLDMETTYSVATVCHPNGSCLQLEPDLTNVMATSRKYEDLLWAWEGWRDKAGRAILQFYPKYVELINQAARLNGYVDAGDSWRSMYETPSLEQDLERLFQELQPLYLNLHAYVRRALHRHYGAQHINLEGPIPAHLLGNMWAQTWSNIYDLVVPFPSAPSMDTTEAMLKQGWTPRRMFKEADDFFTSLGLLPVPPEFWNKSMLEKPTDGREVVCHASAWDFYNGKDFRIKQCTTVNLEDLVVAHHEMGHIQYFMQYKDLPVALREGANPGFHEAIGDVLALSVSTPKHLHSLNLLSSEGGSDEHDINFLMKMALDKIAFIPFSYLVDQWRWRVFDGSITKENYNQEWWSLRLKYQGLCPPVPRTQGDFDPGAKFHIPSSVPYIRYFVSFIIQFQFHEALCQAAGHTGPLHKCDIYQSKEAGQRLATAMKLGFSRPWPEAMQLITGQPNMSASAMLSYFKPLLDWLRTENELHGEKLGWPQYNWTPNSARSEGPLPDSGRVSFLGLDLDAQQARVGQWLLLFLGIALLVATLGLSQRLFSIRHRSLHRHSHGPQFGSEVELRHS

S. aureus = assay: agar diffusion test
Method: In the first stage of examination, the agar diffusion test was employed. The extracts and substances to be tested were respectively dissolved using appropriate solvents (dichloromethane, methanol and water) and applied to filter paper sheets in different concentrations. Comparative sheets soaked with 25 μl of the corresponding solvent served as a control. Ampicillin (10 μg/sheet) was employed as a reference substance. The dried filter paper sheets were finally placed onto agar plates. For the basic screening, nutrient agar II (VEB Immunpraparate, Berlin, Germany) was employed, and for the examination on strains isolated from patient material, Mueller-Hinton II agar (Becton Dickinson Microbiology Systems, Cockeysville, USA) was employed. Using an inoculation wire loop, a pinheadful of test germ culture was suspended in 3 ml of a sterile 0.90% NaCl solution. Subsequently, 200 μl of the germ suspension was added to 20 ml of sterile, liquefied and slightly warm nutrient agar and cast into Petri dishes having a diameter of 10 cm. After placing the sheets onto the congealed agar, the plates were preincubated at 8° C. for about 2 to 3 hours, followed by incubation of the plates in an incubator at 37° C. for 24 hours. Micrococcus flavus was an exception. This culture was stored only at room temperature because the germ reaches its optimum growth at 20° C.
The evaluation of the plates was effected by measuring the diameters of the inhibition halos. All operations were done under aseptic conditions.

S. haemolyticus = assay: agar diffusion test on pathogens of Gram-positive infections; conditions: S. haemolyticus (multiresistant strains isolated from patient material)
Method: (§1) In the first stage of examination, the agar diffusion test was employed. The extracts and substances to be tested were respectively dissolved using appropriate solvents (dichloromethane, methanol and water) and applied to filter paper sheets in different concentrations. Comparative sheets soaked with 25 μl of the corresponding solvent served as a control. Ampicillin (10 μg/sheet) was employed as a reference substance. The dried filter paper sheets were finally placed onto agar plates. For the basic screening, nutrient agar II (VEB Immunpraparate, Berlin, Germany) was employed, and for the examination on strains isolated from patient material, Mueller-Hinton II agar (Becton Dickinson Microbiology Systems, Cockeysville, USA) was employed. Using an inoculation wire loop, a pinheadful of test germ culture was suspended in 3 ml of a sterile 0.90% NaCl solution. Subsequently, 200 μl of the germ suspension was added to 20 ml of sterile, liquefied and slightly warm nutrient agar and cast into Petri dishes having a diameter of 10 cm. After placing the sheets onto the congealed agar, the plates were preincubated at 8° C. for about 2 to 3 hours, followed by incubation of the plates in an incubator at 37° C. for 24 hours. Micrococcus flavus was an exception. This culture was stored only at room temperature because the germ reaches its optimum growth at 20° C. […]

Enterococci = assay: as above; conditions: Enterococci (multiresistant strains isolated from patient material)
Method: as §1

influenza virus type A = assay: antiviral activity

Method for S. epidermidis: Methods: Extracts according to Example 9 in a concentration of 2 mg/l were dropped onto standardized test plates for the resistance assay for the commercially available antibiotics amicazin, trimethroprim and fusidinic acid (Sensi-Disk Antibiotics Test Plates, Becton Dickinson Microbiology Systems, Cockeysville, USA). The antibacterial activity was determined according to Example 1 on multiresistant coagulase-negative staphylococci isolated from patient material.

ganoderic acid C
reduction of 48/80-induced histamine release [1]: 70% | reduction of Con-A-induced histamine release [1]: 85%

CC(=CCCC(C)=CCCC(=CCc1cc(O)ccc1O)C(=O)O)CO [Ganomycin A, 2-[2-(2,5-dihydroxyphenyl)ethylidene]-11-hydroxy-6,10-dimethylundeca-5,9-dienic acid]
Diameter of inhibition halo [2]: 10 mm | Diameter of inhibition halo [3]: 15 mm | Diameter of inhibition halo [4]: 10 mm | inhibition of the lipopolysaccharide binding (in words) (CD-14 receptor): causes inhibition | luminol-induced and spontaneous oxygen free-radical release [5]: inhibit

CC(C)[C@@H](C)C=C[C@@H](C)[C@H]1CC[C@H]2C3=CCC4C[C@H](O)[C@@H](O)C[C@]4(C)[C@@]3(O)CC[C@]12C (stereo partly drawn) [ergosta-7,22-diene-2β,3α,9α-triol]
ED50 for the hepatoma cells [6]: 1170 µg/mL | ED50 for KB cells (KB cells): 0.89 µg/mL

CC(=O)O[C@@H]1C(=O)C2=C(C(=O)C[C@H]3C(C)(C)C(=O)CC[C@]23C)[C@]2(C)C(=O)C[C@H]([C@H](C)CC(=O)CC(C)C(=O)O)[C@@]12C (some centres unmarked) [ganoderic acid F]
IC50 [7]: 4.7 µM

ganoderaldehyde A
ED50 for the hepatoma cells [6]: 10.99 µg/mL | ED50 for KB cells (KB cells): 9.75 µg/mL

CC(C)=CCCC(C)=CCCC(=CCc1cc(O)ccc1O)C(=O)O [Ganomycin B, 2-[2-(2,5-dihydroxyphenyl)ethylidene]-6,10-dimethylundeca-5,9-dienic acid]
Diameter of inhibition halo [2]: 12 mm | Diameter of inhibition halo [3]: 17 mm | Diameter of inhibition halo [4]: 26 mm | inhibition of the lipopolysaccharide binding (in words) (CD-14 receptor): causes inhibition | luminol-induced and spontaneous oxygen free-radical release [5]: inhibit | Inhibition halo (S. aureus; S. aureus (MRSA strains isolated from patient material)): 10-16 mm | Inhibition halo (S. aureus; S. aureus ATCC 6538): 30 mm | Inhibition halo (S. aureus; S. aureus ATCC 25923): 25 mm | Inhibition halo (S. aureus; S. aureus ATCC 29213): 22 mm | Inhibition halo (S. aureus; S. aureus reference strain “North-German Strain” (Smith Kline Beecham)): 16 mm | Inhibition halo (S. haemolyticus): 12-16 mm | Inhibition halo (Enterococci): 10-14 mm | Inhibition halo (S. epidermidis; S. epidermidis 125, extract 2 mg/l dropped onto antibiotic test plates): 16 mm | Inhibition halo (S. epidermidis; S. epidermidis 473, extract 2 mg/l dropped onto antibiotic test plates): 20 mm | Inhibition halo (S. epidermidis; S. epidermidis 847, extract 2 mg/l dropped onto antibiotic test plates): 16 mm | Inhibition halo (S. epidermidis; S. epidermidis (multiresistant strains isolated from patient material)): 16-20 mm

CC(CC(=O)C[C@@H](C)[C@H]1CC(=O)[C@@]2(C)C3=C(C(=O)C[C@]12C)[C@@]1(C)CCC(=O)C(C)(C)[C@@H]1C[C@@H]3O)C(=O)O (some centres unmarked) [ganoderic acid D]
reduction of 48/80-induced histamine release [1]: 80% | reduction of Con-A-induced histamine release [1]: 80%

C/C(=C\CC[C@@H](C)[C@H]1CC[C@@]2(C)C3=C(CC[C@]12C)[C@@]1(C)CC[C@H](O)C(C)(C)[C@@H]1CC3=O)CO [Ganoderone B, 3,26-dihydroxylanosta-8,24-diene-7-one]
inhibition of the lipopolysaccharide binding (in words) (CD-14 receptor): inhibits | antiviral activity against influenza virus type A (influenza virus type A): has antiviral activity
